Results: patent US20090270363A1, “2-Aryl- and 2-Heteroarylthiazolyl Compounds, Methods for Their Preparation and Use Thereof” (Wyeth, priority 2008, published 2009)

How the values were obtained:
[1] = tested on: HCT116 cells (Securin+/+, securin parental, HCT116 FB); assay: Growth inhibition (sulforhodamine B, 5 days) of securin parental cells; assay type: cell-based; conditions: Homo sapiens, HCT-116, 120 h, SRB
Procedure: (§1) IC50 analysis was performed for selected fused bicyclic 2-aryl or 2-heteroarylthiazolyl compounds that were tested on HCT116 cells and Securin “knock out” cell lines.
(§2) Cell Culture—HCT116 and securin “knock out” cells. HCT116 and securin “knock out” cells (D8 and F3) were grown in RPMI+5% fetal bovine serum and gentamycin. They were maintained in a humidified 37° C. incubator with 5% CO2. Since the securin “knock out” cells have active chromosomal instability, cells were used at a low passage number of 2-13 passages. At or before passage 13 a new vial of cells was thawed and used for the screen. Cell seeding—HCT116 cells and securin “knock out” cells were trypsinized and suspended in RPMI+5% FBS at a density of 27,000 cells/mL. HCT116 and securin “knock out” cells were seeded separately in wells of a 96-well plate (Falcon Cat # 35-3872) at a cell density of 4000 cells per well. Cells were seeded in 150 μL of RPMI media containing 5% FBS and gentamycin. Cell seeding was performed under aseptic conditions. Cells were allowed to attach and grow overnight in a humidified 37° C. incubator.
(§3) Compound Dilution and Dispensation. A series of stock solutions, 10 mg/mL of fused bicyclic 2-aryl- or 2-heteroarylthiazolyl compounds to be tested, were brought to room temperature. The compounds were diluted 1:50 in RPMI+5% FBS (Highest concentration 200 μg/mL). The compounds were then serially diluted 1:3 across a deep-well titration plate resulting in final concentrations in the plate of 200, 66.7, 22.2, 7.4, 2.4, 0.8, 0.27, 0.091, 0.03, 0.01, and 0.0034 μg/mL with one well left without a compound. 50 μL of this dilution series was added to the 150 μL of cells to result in a final concentration of compound in with the cells of 50, 16.6, 5.5, 1.8, 0.6, 0.2, 0.068, 0.023, 0.0076, 0.0025, and 0.00084 μg/mL. The dilution and addition of compounds to the plates is performed using a Multimek 96 Robot (Beckman Coulter).
(§4) Incubation and analysis. After dosing, the cells in the 96 well plates were returned to the humidified 37° C. incubator. The compounds remained on the cells for 5 days. After 5 days, the cells were fixed to the plates with the addition of 50 μL of 50% (vol/vol) Trichloro Acetic Acid ([…]). The cells were fixed at 4° C. for 1 hour. The plates were washed 5 times in distilled water and allowed to dry. The cells were stained with 0.4% sulforhodamine B (Sigma) in 1% acetic acid. The cells were stained for 15 minutes at room temperature. The plates were then washed 3 times in 1% acetic acid. The plates were dried and the dye was solubilized in 10 mM Tris at pH 8.0. The plates were read on the Absorbence 560 setting on a Victor^2 V Model 1420 Multilabel HTS counter (Perkin Elmer).
(§5) Analysis of Results—IC50 data. Absorbence data was read off of the Victor and was converted to a percentage of the control (untreated) values. IC50 values were graphed and the point at which a 50% inhibition of the control level was determined. […] If the model was not able to determine an IC50, the IC50 was assigned to the lowest concentration that gives a 50% or greater decrease in absorbence compared to control levels. If the calculated IC50 value for a cell line exceeds the top concentration for the assay (typically 50 μg/mL), the assay was scored as >50.
(§6) Selectivity Ratio. The Selectivity Ratio is the ratio of IC50s between the parent cell line and the knock out cell line and is always a positive number and is typically an integer.

[2] = tested on: securin "knock out" cells D8 (Securin-/-); assay: Growth inhibition (sulforhodamine B, 5 days) of securin knock out cells D8; assay type: cell-based; conditions: for IC50: 120 h, securin knock out D8 cells, 5 days, SRB; for Selectivity Ratio D8: IC50 HCT116 / IC50 securin KO D8
Procedure: as §1, §2, §3, §4, §5, §6

[3] = tested on: securin "knock out" cells F3 (Securin-/-); assay: Growth inhibition (sulforhodamine B, 5 days) of securin knock out cells F3; assay type: cell-based; conditions: for IC50: 120 h, securin knock out F3 cells, 5 days, SRB; for Selectivity Ratio F3: IC50 HCT116 / IC50 securin KO F3
Procedure: as §1, §2, §3, §4, §5, §6

[4] = tested on: Xenografts of a Human Breast Carcinoma Cell Line (MDA-MB-361); assay: Tumor xenograft study versus Herceptin (Table 2); assay type: in vivo; conditions: 20 mg/kg/dose PO, days 1 through 20
Procedure: (§7) Selected fused bicyclic 2-aryl- or 2-heteroarylthiazolyl compounds of formula I were tested for their activity in a securin parental cell line (HCT116 FB) and a securin knockout (KO) cell line. […] The in-vivo activity of selected fused bicyclic 2-aryl- or 2-heteroarylthiazolyl compounds of formula I was studied in cells growing as xenografts in athymic (nude) mice. The effect of Examples 164, 166 and 167 was studied in xenografts of a human breast carcinoma cell line (MDA-MB-361).
(§8) In-vivo Activity in Tumor Xenografts. […] The fused bicyclic 2-arylthiazolyl compounds were formulated using 0.5% Methocel™ (methylcellulose) and 0.4% Tween 80™ (polysorbate-80 and oleic acid) and administered daily orally (PO), by gavage or by syringe. Tumor mass [(length×width^2)/2] was determined every 7 days. Inhibition of tumor growth was calculated relative to conventional (vehicle treated) controls.

[5] = tested on: Xenografts of a Human Breast Carcinoma Cell Line (MDA-MB-361); assay: Tumor xenograft study versus Vincristine (Table 3); assay type: in vivo; conditions: days 2 through 21
Procedure: as §7, §8
The effectiveness of Examples 164, 166 and 167 versus Vincristine at controlling tumor growth was studied and the results are summarized in Table 3 and FIG. 2.

| Structure (SMILES) | IC50 [1] [µM] | IC50 [2] [µM] | Selectivity Ratio D8 [2] | IC50 [3] [µM] | Selectivity Ratio F3 [3] | further results |
| --- | --- | --- | --- | --- | --- | --- |
| CN(C)c1ccc(-c2nc3c(s2)[C@@H](O)CCC3)cc1 [Example 167, (7S)-2-[4-(dimethylamino)phenyl]-4,5,6,7-tetrahydro-1,3-benzothiazol-7-ol] | 100 | 60 | 2 | 70.7 | 1 | % T/C Day 7 [4]: 46%; % T/C Day 14 [4]: 61%; % T/C Day 21 [4]: 61%; Relative Tumor Growth Day 7 [4]: 0.89; Relative Tumor Growth Day 14 [4]: 1.96; Relative Tumor Growth Day 21 [4]: 6.39; S/T = # of Survivors/# of Treated on Day +21 [4]: 5/5; % T/C Day 8 ([5]; 25 mg/kg/dose PO): 61%; % T/C Day 15 ([5]; 25 mg/kg/dose PO): 68%; % T/C Day 22 ([5]; 25 mg/kg/dose PO): 113%; Relative Tumor Growth Day 8 ([5]; 25 mg/kg/dose PO): 3.18; Relative Tumor Growth Day 15 ([5]; 25 mg/kg/dose PO): 8.38; Relative Tumor Growth Day 22 ([5]; 25 mg/kg/dose PO): 24.80; % T/C Day 8 ([5]; 50 mg/kg/dose PO): 50%; % T/C Day 15 ([5]; 50 mg/kg/dose PO): 62%; % T/C Day 22 ([5]; 50 mg/kg/dose PO): 71%; Relative Tumor Growth Day 8 ([5]; 50 mg/kg/dose PO): 2.62; Relative Tumor Growth Day 15 ([5]; 50 mg/kg/dose PO): 7.61; Relative Tumor Growth Day 22 ([5]; 50 mg/kg/dose PO): 15.56 |
| C#CCOC(=O)c1cc(N(C)C)ccc1-c1nc2c(s1)C(O)CCC2 (centres unmarked) [Example 129, prop-2-yn-1-yl 5-(dimethylamino)-2-(7-hydroxy-4,5,6,7-tetrahydro-1,3-benzothiazol-2-yl)benzoate] | 77.8 | 0.36 | 216 | 0.45 | 172 |  |
| CC(O)c1cc(N(C)C)ccc1-c1nc2c(s1)C(O)CCC2 (centres unmarked) [Example 73, 2-[4-(dimethylamino)-2-(1-hydroxyethyl)phenyl]-4,5,6,7-tetrahydro-1,3-benzothiazol-7-ol] | 99.5 | 0.44 | 226 | 0.79 | 126 |  |
| CN(C)c1ccc(-c2nc3c(s2)C(O)CCC3)c(C(=O)OCc2ccoc2)c1 (centres unmarked) [Example 116, 3-furylmethyl 5-(dimethylamino)-2-(7-hydroxy-4,5,6,7-tetrahydro-1,3-benzothiazol-2-yl)benzoate] | 85.2 | 0.59 | 145 | 0.82 | 104 |  |
| COC(=O)c1cc(N2CCCC2)ccc1-c1nc2c(s1)C(O)CCC2 (centres unmarked) [Example 161, 2-(7-Hydroxy-4,5,6,7-tetrahydro-benzothiazol-2-yl)-5-pyrrolidin-1-yl-benzoic acid methyl ester] | 66.3 | 0.4 | 165 | 0.52 | 128 |  |
| COC(=O)c1cc(N(C)C)ccc1-c1nc2c(s1)[C@H](O)CCC2 [Example 165, methyl 5-(dimethylamino)-2-[(7R)-7-hydroxy-4,5,6,7-tetrahydro-1,3-benzothiazol-2-yl]benzoate] | 100 | 0.29 | 348 | 0.74 | 136 |  |
| OC1CCCc2nc(-c3ccc(N4CCNCC4)cc3)sc21 (centres unmarked) [Example 163, 2-(4-piperazin-1-yl-phenyl)-4,5,6,7-tetrahydrobenzothiazol-7-ol] | 31.6 | 25.9 | 1 | 22.9 | 1 |  |
| COC(=O)c1cc(N(C)C)ccc1-c1nc2c(s1)C(O)CCC2 (centres unmarked) [Example 55, methyl 5-(dimethylamino)-2-(7-hydroxy-4,5,6,7-tetrahydro-1,3-benzothiazol-2-yl)benzoate] | 105 | 0.65 | 160 | 1.2 | 90 |  |
